In the supplement of paper PMC10307832:

Assays:
Assay in all cases: relative viability (nuclei count vs DMSO), 5 days (fraction); higher = more cells survive
Trametinib + Olaparib = compound: CC(=O)Nc1cccc(-n2c(=O)n(C3CC3)c(=O)c3c(Nc4ccc(I)cc4F)n(C)c(=O)c(C)c32)c1 [Trametinib] + O=C(c1cc(Cc2n[nH]c(=O)c3ccccc23)ccc1F)N1CCN(C(=O)C2CC2)CC1 [Olaparib] (partner 8 µM)
Summary of the method: (§1)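 Lung cancer cell lines were seeded in 1536-well plates and dosed by pin tool the next day, with either a single drug or a fixed anchor-drug dose combined with five library-drug doses (not always all listed) spaced in √10 steps. Five days later, one step fixed the cells and stained their nuclei (final 0.05% Triton X-100, 1% formaldehyde, 1 ug/ml Hoechst), and nuclei were counted on 4× images. Relative viability is the nuclei count in treated wells divided by the count in vehicle wells, and each value is the median of duplicate plates.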

Trametinib + Pemetrexed = compound: CC(=O)Nc1cccc(-n2c(=O)n(C3CC3)c(=O)c3c(Nc4ccc(I)cc4F)n(C)c(=O)c(C)c32)c1 [Trametinib] + Nc1nc2[nH]cc(CCc3ccc(C(=O)N[C@@H](CCC(=O)O)C(=O)O)cc3)c2c(=O)[nH]1 [Pemetrexed] (partner 0.2 µM)
Summary of the method: as §1

Trametinib + Vorinostat = compound: CC(=O)Nc1cccc(-n2c(=O)n(C3CC3)c(=O)c3c(Nc4ccc(I)cc4F)n(C)c(=O)c(C)c32)c1 [Trametinib] + O=C(CCCCCCC(=O)Nc1ccccc1)NO [Vorinostat] (partner 1 µM)
Summary of the method: as §1

[1] = compound: CN1C=C(C2=CC=CC=C21)/C=C\3/C4=C(C=CC=N4)NC3=O + O=C(c1cc(Cc2n[nH]c(=O)c3ccccc23)ccc1F)N1CCN(C(=O)C2CC2)CC1 [Olaparib] (partner 8 µM)
Summary of the method: as §1

UMC-11
relative viability (Trametinib + Olaparib; first compound 0.0025 µM): 0.547 | relative viability (Trametinib + Olaparib; first compound 0.007906 µM): 0.455 | relative viability (Trametinib + Olaparib; first compound 0.07906 µM): 0.303 | relative viability (Trametinib + Olaparib; first compound 0.25 µM): 0.29 | relative viability (Trametinib + Pemetrexed; first compound 0.0025 µM): 0.804 | relative viability (Trametinib + Pemetrexed; first compound 0.007906 µM): 0.741 | relative viability (Trametinib + Pemetrexed; first compound 0.07906 µM): 0.719 | relative viability (Trametinib + Pemetrexed; first compound 0.25 µM): 0.701 | relative viability (Trametinib + Vorinostat; first compound 0.0025 µM): 0.327 | relative viability (Trametinib + Vorinostat; first compound 0.007906 µM): 0.352 | relative viability (Trametinib + Vorinostat; first compound 0.07906 µM): 0.313 | relative viability (Trametinib + Vorinostat; first compound 0.25 µM): 0.294 | relative viability ([1]; first compound 0.02 µM): 0.461 | relative viability ([1]; first compound 0.06325 µM): 0.333 | relative viability ([1]; first compound 0.2 µM): 0.356 | relative viability ([1]; first compound 0.6325 µM): 0.381 | relative viability ([1]; first compound 2 µM): 0.47
